Assay results as given in patent US8361998B2, “Compounds and their use as IKACh blockers” (AstraZeneca AB, priority 2010, dated 2013).
pIC50: −log10 of the molar value.

Target: T1, human cardiac ion channel proteins hKir3.1/Kir3.4 (Homo sapiens, UniProt P48544+P48549)
T1 construct: expressed in transfected cells
T1 sequence (P48549 1-501): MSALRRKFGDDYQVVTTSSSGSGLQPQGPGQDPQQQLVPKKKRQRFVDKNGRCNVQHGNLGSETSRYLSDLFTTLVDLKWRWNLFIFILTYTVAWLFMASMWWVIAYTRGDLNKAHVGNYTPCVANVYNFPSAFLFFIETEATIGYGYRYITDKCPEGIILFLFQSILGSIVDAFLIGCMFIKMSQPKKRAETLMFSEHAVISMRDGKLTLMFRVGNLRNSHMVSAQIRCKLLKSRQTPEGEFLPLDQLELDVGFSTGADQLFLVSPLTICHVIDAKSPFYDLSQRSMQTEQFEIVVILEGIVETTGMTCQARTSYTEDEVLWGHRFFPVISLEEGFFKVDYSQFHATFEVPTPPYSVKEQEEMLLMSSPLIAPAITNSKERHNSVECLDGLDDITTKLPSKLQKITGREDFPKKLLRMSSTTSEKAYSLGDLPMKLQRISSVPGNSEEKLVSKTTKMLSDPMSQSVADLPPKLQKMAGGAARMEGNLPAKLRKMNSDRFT
T1 sequence (P48544 1-419): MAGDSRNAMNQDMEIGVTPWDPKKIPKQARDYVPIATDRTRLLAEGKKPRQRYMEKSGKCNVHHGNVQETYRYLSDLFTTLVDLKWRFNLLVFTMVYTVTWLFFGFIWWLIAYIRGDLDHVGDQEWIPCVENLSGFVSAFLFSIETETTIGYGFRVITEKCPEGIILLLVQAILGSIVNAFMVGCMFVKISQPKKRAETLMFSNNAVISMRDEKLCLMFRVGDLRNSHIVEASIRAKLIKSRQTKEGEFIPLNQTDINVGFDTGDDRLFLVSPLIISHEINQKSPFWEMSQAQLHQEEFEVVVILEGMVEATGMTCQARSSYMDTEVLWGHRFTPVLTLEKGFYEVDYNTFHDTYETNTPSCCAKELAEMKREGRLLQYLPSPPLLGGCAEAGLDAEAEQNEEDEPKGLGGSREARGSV
Assay: Atomic Absorption Screening (AAS) Rb efflux assay of hKir3.1/Kir3.4 block, carbachol/high K+ stimulated, 10-pt or 7-pt CR
Format: cell-based
Settings: 7-pt CR (0.037 to 27 μmol/L), AAS Rb efflux, CHO-K1 cells expressing hKir3.1/Kir3.4; mean of >3 replicates; read-out: IKACh IC50 7-pt CR, AAS
Description: Human KCNJ3 encoding Kir3.1 (Genbank acc. No. NM_002239) was inserted between EcoRI and NotI in the pIRESneo3 vector (Clontech Laboratories, Inc. CA, USA). Human KCNJ5 encoding Kir3.4 (Genbank Acc. No. BC069482) was inserted between EcoR1 and Not1 in the pIRESpuro3 vector (Clontech Laboratories, Inc. CA, USA). A Kozak sequence (GCCACC) was introduced before the start codon ATG of both constructs. Chinese Hamster Ovary K1, CHO-FLP/IN, cells (Invitrogen Corporation, Paisley, UK) were transfected simultaneously using Lipofectamine 2000 reagent (Invitrogen Corporation, Paisley, UK). Geneticin 600 μg/mL (Invitrogen Corporation, Paisley, UK) and puromycin 3 μg/mL (BD Bioscience) were added to the cell culture medium 3 days after transfection. Two weeks after transfection, colonies had appeared and were manually picked and sorted to one cell per well in a 96-well plate. Cells were then tested for Kir3.1 and Kir3.4 expression using membrane potential assay, Western Blot and Immunocytochemistry. […] The cell line was re-sorted by flow cytometry and resulting clones were assayed electrophysiologically using IonWorks (Molecular Devices) and later validated on the Q-Patch (Sophion A/S).
The stable cell line was cultured in DMEM/F12 with Glutamax 1 (Invitrogen Corporation, Paisley, UK), supplemented with foetal bovine serum 10%, puromycin 3 μg/mL, hygromycin 300 μg/mL and geneticin 600 μg/mL (Invitrogen Corporation, Paisley, UK). Care was taken not to seed cells at too low density and cells were passaged at approximately 70-80% confluency. Cells used for patch-clamp experiments were prepared by washing using PBS (—Mg, —Ca^2+), 2 times, detached using Accutase (Sigma). For Q-Patch measurements, storage medium was prepared fresh by adding 1.25 mL of 1M Hepes (GibcoBRL) to 50 mL CHO-SFM II medium (GibcoBRL) and detached cells were diluted to 2 million cells/mL in this medium. Frozen (Cryopreserved) cells were used for Atomic Absorption Screening (AAS) and plated poly-D-lysine 384-well plates (Greiner) at a density of 11,000-13,000 cells/well, the day before assay.
The blocking effects of compounds on the human cardiac ion channel proteins hKir3.1/Kir3.4 were assessed in CHO-K1 cells stably expressing the channel proteins using Atomic Absorption Screening (AAS). Cells were washed and then loaded with 25 μL Rb-loading buffer for three hours at 37° C. After that, the cells were washed again and 25 μL of diluted compound was transferred to the cell plate, incubated for 5 min in RT, and then […] of Carbachol/high K+ (10 μM carbachol and 20 mM KCl final concentration) buffer added to stimulate the cells and open the Kir3.1/Kir3.4 channel. After 10 min stimulation, […] of the supernatant was transferred to a new microplate, 45 μL washing buffer added to the supernatant and the level of Rb in the supernatant was then measured using an Aurora ICR 8000. Compounds were studied at concentrations ranging from 0.003 to 67 μmol/L (dilutions by three, 10-pt CR) or from 0.037 to 27 μmol/L (dilutions by three, 7-pt CR).
Stock solutions of compounds were prepared in DMSO 10 mM and stored at RT. Buffers used for AAS contained (in mM): HEPES 20, NaCl 150, MgCl2 1.0, CaCl2 2.0 and NaH2PO4 0.8 and Glucose 10 (wash 1) or KCl 5 and Glucose 5 (wash 2) or KCl 5 (dilution buffer). The High K^+ channel opener buffer contained (in mM): HEPES 20, NaCl 130, MgCl2 1.0, CaCl2 2.0 and NaH2PO4 0.8 together with KCl 20. Solutions used for Q-Patch (extracellular) in mM: NaCl 145, KCl 4, CaCl2 2.0, MgCl2 1.0, HEPES 10 and glucose 10. The high K^+ extra cellular solution used for Q-Patch in mM: NaCl 96.7, KCl 50.7, CaCl2 2.0, MgCl2 1.0, HEPES 10 and glucose 10 while the intra cellular solution used was (in mM): KCl 120, CaCl2 5.374, MgCl2 1.75, EGTA 10, KOH 3.125, HEPES 10, Na2ATP 4.
Results are given as mean IC50 of >4 replicates (10-pt CR, AAS) or >3 replicates (7-pt CR, AAS). Some of the data in Table 1 are mean values of two or more runs. […]

SMILES	pIC50
CC(C)[C@H](CN1CCCC1)N(C)C(=O)c1ccc(Cl)cc1Cl [Example 16.58, (R)-2,4-Dichloro-N-methyl-N-(3-methyl-1-(pyrrolidin-1-yl)butan-2-yl)benzamide]	5.24
CC(C)[C@@H](CN1CC[C@H](O)C1)N(C)C(=O)c1cccc(Cl)c1F [Example 16.39, 3-Chloro-2-fluoro-N-[(1S)-1-{[(3S)-3-hydroxypyrrolidin-1-yl]methyl}-2-methylpropyl]-N-methylbenzamide]	5.41
COc1cc(C(=O)N(C)[C@H](CN2CCCC2)C(C)C)ccc1F [Example 16.11, (S)-4-Fluoro-3-methoxy-N-methyl-N-(3-methyl-1-(pyrrolidin-1-yl)butan-2-yl)benzamide]	4.96
Cc1cc(C(=O)N(C)[C@H](CN2CCCCC2)C(C)C)ccc1Cl [Example 16.25, 4-Chloro-N,3-dimethyl-N-[(1S)-2-methyl-1-(piperidin-1-ylmethyl)propyl]benzamide]	5.55
CC(C)[C@H](CN1CCCC1)N(C)C(=O)c1ccc(Br)cc1 [Example 16.57, (R)-4-Bromo-N-methyl-N-(3-methyl-1-(pyrrolidin-1-yl)butan-2-yl)benzamide]	4.96

Same assay, conditions: 10-pt CR (0.003 to 67 μmol/L), AAS Rb efflux, CHO-K1 cells expressing hKir3.1/Kir3.4; mean of >4 replicates; read-out: IKACh IC50 10-pt CR, AAS

SMILES	pIC50
CC(C)[C@@H](CN1CCC1)N(C)C(=O)c1cccc(C(F)(F)F)c1 [Example 1.15, (S)-N-(1-(Azetidin-1-yl)-3-methylbutan-2-yl)-N-methyl-3-(trifluoromethyl)benzamide]	5.64
CC[C@H](C)[C@@H](CN1CCCC1)N(C)C(=O)c1ccc(F)c(C)c1 [Example 2.5, 4-Fluoro-N,3-dimethyl-N-((2S,3S)-3-methyl-1-(pyrrolidin-1-yl)pentan-2-yl)benzamide]	5.57
CN(C(=O)c1ccc(Br)cc1)C(C)(C)CN1CCCC1 [Example 16.7, 4-Bromo-N-methyl-N-(2-methyl-1-(pyrrolidin-1-yl)propan-2-yl)benzamide]	4.85
CN(C(=O)c1ccc(F)c(F)c1)[C@H](CN1CCCC1)C1CC1 [Example 3.16, (S)-N-(1-Cyclopropyl-2-(pyrrolidin-1-yl)ethyl)-3,4-difluoro-N-methylbenzamide]	4.89
Cc1cc(C(=O)N(C)[C@H](CN2CCC2)C(C)C)ccc1F [Example 1.10, (S)-N-(1-(Azetidin-1-yl)-3-methylbutan-2-yl)-4-fluoro-N,3-dimethylbenzamide]	5.16
CO[C@H](C)[C@@H](CN1CCCC1)N(C)C(=O)c1ccc(Cl)cc1 [Example 3.5, 4-Chloro-N-((2R,3R)-3-methoxy-1-(pyrrolidin-1-yl)butan-2-yl)-N-methylbenzamide]	5.14
COC1CCN(C[C@H](C(C)C)N(C)C(=O)c2cccc(C)c2)CC1 [Example 3.10, (S)-N-(1-(4-Methoxypiperidin-1-yl)-3-methylbutan-2-yl)-N,3-dimethylbenzamide]	4.85
CN(C(=O)c1ccc(Cl)cc1)C(CN1CC(O)C1)C1CCCC1 (single isomer, unassigned) [32.3, isomer 2]	6.52
CC(C)[C@H](CN1CCCC1)N(C)C(=O)c1ccc(Br)cc1 [Example 16.57, (R)-4-Bromo-N-methyl-N-(3-methyl-1-(pyrrolidin-1-yl)butan-2-yl)benzamide]	5.06

Continued, values first:

pIC50	SMILES
4.96	Cc1cc(C(=O)N(C)[C@H](CN2CC[C@@H](O)C2)C(C)C)ccc1F [Example 17.3, 4-Fluoro-N—((S)-1-((R)-3-hydroxypyrrolidin-1-yl)-3-methylbutan-2-yl)-N,3-dimethylbenzamide]
5.55	CC(C)[C@@H](CN1CC(C)(O)C1)N(C)C(=O)c1ccc(Br)cc1 [Example 9.6, (S)-4-Bromo-N-(1-(3-hydroxy-3-methylazetidin-1-yl)-3-methyl-butan-2-yl)-N-methylbenzamide]
7.31	CN(C(=O)c1ccc(Cl)cc1)[C@H](CN1CC(O)C1)C1CCCCC1 [Example 36.2, 4-Chloro-N-[(1S)-1-cyclohexyl-2-(3-hydroxyazetidin-1-yl)ethyl]-N-methylbenzamide]
5.89	Cc1ccc(C(=O)N(C)[C@H](CN2CC(O)(C3CC3)C2)C2CC2)cc1C [Example 9.5, (S)-N-(1-Cyclopropyl-2-(3-cyclopropyl-3-hydroxyazetidin-1-yl)ethyl)-N,3,4-trimethylbenzamide]
5.03	C[C@@H](CN1CC(O)C1)N(C)C(=O)c1ccc(Cl)c(F)c1 [Example 40.3, (S)-4-Chloro-3-fluoro-N-(1-(3-hydroxyazetidin-1-yl)propan-2-yl)-N-methylbenzamide]
4.96	Cc1ccc(C(=O)N(C)[C@H](CN2CCCC(F)(F)C2)C(C)C)cc1C [Example 16.3, (S)—N-(1-(3,3-Difluoropiperidin-1-yl)-3-methylbutan-2-yl)-N,3,4-trimethylbenzamide]
4.77	CC(C)[C@@H](CN1CC[C@@H](O)C1)N(C)C(=O)c1ccc(Cl)cc1 [Example 17.4, 4-Chloro-N—((S)-1-((R)-3-hydroxypyrrolidin-1-yl)-3-methylbutan-2-yl)-N-methylbenzamide]

Same assay, conditions: printed as IC50 >67 μM in the 10-pt CR assay or IC50 >27 μM in the 7-pt CR assay; assay format per compound not stated; read-out: IC50

pIC50	SMILES
< 4.57	CC(C)[C@H](CN1CCC1)N(C)C(=O)c1ccc(Br)cc1 [(R)-N-(1-(Azetidin-1-yl)-3-methylbutan-2-yl)-4-bromo-N-methylbenzamide]
< 4.57	CC(C)[C@@H](CN1CCCCC1)N(C)C(=O)c1ccc(OC(F)(F)F)cc1 [N-Methyl-N-[(1S)-2-methyl-1-(piperidin-1-ylmethyl)propyl]-4-(trifluoromethoxy)benzamide]

SMILES	pIC50
C[C@@H](CN1CCCC1)N(C)C(=O)c1ccc(Br)cc1 [4-Bromo-N-methyl-N-[(1S)-1-methyl-2-pyrrolidin-1-ylethyl]benzamide]	< 4.57
